Results taken from patent publication US8653096B2, “Chemokine receptor antagonists and methods of use thereof” (Millennium Pharmaceuticals, Inc., priority 2001, dated 2014).

These compounds were tested against T1, RANTES/MIP-1α chemokine receptor (CCR1) in THP-1 cell membranes (Homo sapiens, UniProt P32246) (assay: Receptor binding assay: 125I-RANTES or 125I-MIP-1α binding to THP-1 cell membranes). Settings: inhibitor concentration required for 50% inhibition of specific binding; 125I-RANTES or 125I-MIP-1α as ligand, THP-1 cell membranes; read-out: IC50.
T1 construct: Membranes were prepared from THP-1 cells (ATCC #TIB202); host or cells: THP-1 cells (membrane preparation)
T1 sequence (P32246 1-355): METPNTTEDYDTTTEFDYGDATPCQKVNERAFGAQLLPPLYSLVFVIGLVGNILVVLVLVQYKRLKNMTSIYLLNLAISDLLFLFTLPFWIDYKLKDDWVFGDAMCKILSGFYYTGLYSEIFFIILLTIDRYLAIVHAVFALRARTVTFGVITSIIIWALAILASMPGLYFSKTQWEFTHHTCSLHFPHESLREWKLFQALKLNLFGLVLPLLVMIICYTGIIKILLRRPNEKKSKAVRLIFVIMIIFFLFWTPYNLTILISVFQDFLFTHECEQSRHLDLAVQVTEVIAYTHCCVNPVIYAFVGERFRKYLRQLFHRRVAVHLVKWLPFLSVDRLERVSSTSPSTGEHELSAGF

Row | Compound | IC50 [µM]
1 | 4-(4-Chlorophenyl)-1-[3-(5,11-dihydro-7-ethyl[1]benzoxepino[2,3-b]pyridin-5-ylidene)propyl]piperidin-4-ol [Example 163] | < 1
2 | 4-(4-Chlorophenyl)-1-[3-(7-cyanomethyloxy-5,11-dihydro[1]benzoxepino[2,3-b]pyridin-5-ylidene)propyl]piperidin-4-ol [Example 49] | < 1
3 | CCNC(=O)N(Cc1ccc(Cl)cc1)C1CCN(CCC=C2c3cc(C(C)(C)O)ccc3OCc3ncccc32)C1 (stereo not drawn) [Example 569, 1-(4-Chloro-benzyl)-3-ethyl-1-(1-{3-[7-(1-hydroxy-1-methyl-ethyl)-11H-10-oxa-1-aza-dibenzo[a,d]cyclohepten-5-ylidene]-propyl}-pyrrolidin-3-yl)-urea] | < 1
4 | OC1(c2ccc(Cl)cc2)CCN(CCC=C2c3ccccc3CSc3ccccc32)CC1 [Example 8, 4-(4-Chlorophenyl)-1-[3-(6,11-dihydro-dibenz[b,e]thiepin-11-ylidene)propyl]piperidin-4-ol] | < 1
5 | C[C@@H]1CN(CCC=C2c3cc(C(C)(C)O)ccc3OCc3ncccc32)CCN1c1ccc(Cl)cc1 [Example 557, 2-(5-{3-[4-(4-Chloro-phenyl)-3-(R)-methyl-piperazin-1-yl]-propylidene}-5,11-dihydro-10-oxa-1-aza-dibenzo[a,d]cyclohepten-7-yl)-propan-2-ol] | < 1
6 | CC(C)(O)c1ccc2c(c1)C(=CCCN1CCC(O)(c3ccc(Cl)c(Cl)c3)CC1)c1cccnc1CO2 [Example 491, 4-(3,4-Dichloro-phenyl)-1-{3-[7-(1-hydroxy-1-methyl-ethyl)-11H-10-oxa-1-aza-dibenzo[a,d]cyclohepten-5-ylidene]-propyl}-piperidin-4-ol] | < 1
7 | CC(C)(O)c1ccc2c(c1)C(=CCCN1CCC(N(CCO)Cc3ccc(Cl)cc3)C1)c1cccnc1CO2 (stereo not drawn) [Example 554, 2-[5-(3-{3-[(4-Chloro-benzyl)-(2-hydroxy-ethyl)-amino]-pyrrolidin-1-yl}-propylidene)-5,11-dihydro-10-oxa-1-aza-dibenzo[a,d]cyclohepten-7-yl]-propan-2-ol] | < 1
8 | CC(C)(O)c1ccc2c(c1)C(=CCCN1CCC(O)(c3ccc(Cl)c([N+](=O)[O-])c3)CC1)c1cccnc1CO2 [Example 492, 4-(4-Chloro-3-nitro-phenyl)-1-{3-[7-(1-hydroxy-1-methyl-ethyl)-11H-10-oxa-1-aza-dibenzo[a,d]cyclohepten-5-ylidene]-propyl}-piperidin-4-ol] | < 10
9 | 1-[3-(5,11-Dihydro-7-methoxy[1]benzoxepino[2,3-b]pyridin-5-ylidene)propyl]-4-(4-methoxyphenyl)piperidin-4-ol [Example 140] | > 10
10 | 4-(4-Chlorophenyl)-1-[3-(5,11-dihydro-7-methoxy[1]benzoxepino[2,3-b]pyridin-5-ylidene)propyl]piperidine [Example 65] | < 1
11 | 4-(7-Chloroindol-3-yl)-1-[3-(5,11-dihydro-7-methoxy[1]benzoxepino[2,3-b]pyridin-5-ylidene)propyl]-1,2,3,6-tetrahydropyridine [Example 195] | < 10
12 | COC(=O)C1(c2ccc(Cl)cc2)CCN(CCC=C2c3cc(C(C)(C)O)ccc3OCc3ncccc32)CC1 [Example 458, 4-(4-Chloro-phenyl)-1-{3-[7-(1-hydroxy-1-methyl-ethyl)-11H-10-oxa-1-aza-dibenzo[a,d]cyclohepten-5-ylidene]-propyl}-piperidine-4-carboxylic acid methyl ester] | < 10
13 | CCN(C(=O)C1CCN(CCC=C2c3cc(C(C)(C)O)ccc3OCc3ncccc32)C1)c1ccc(Cl)cc1 (stereo not drawn) [Example 531, 1-{3-[7-(1-Hydroxy-1-methyl-ethyl)-11H-10-oxa-1-aza-dibenzo[a,d]cyclohepten-5-ylidene]-propyl}-pyrrolidine-3-carboxylic acid (4-chloro-phenyl)-ethyl-amide] | < 1
14 | COCCOc1ccc2c(c1)C(=CCCN1CCC(O)(c3ccc(Cl)cc3)CC1)c1cccnc1CO2 [Example 175] | < 1
15 | CC(C)(Oc1ccc2c(c1)C(=CCC[N+]1(C)CCC(O)(c3ccc(Cl)cc3)CC1)c1cccnc1CO2)C(N)=O (stereo not drawn) [Example 262, 1-[3-(7-(1-Carbamoyl-1-methyl)ethyloxy-5,11-dihydro[1]benzoxepino[2,3-b]pyridin-5-ylidene)propyl]-4-(4-chlorophenyl)-4-hydroxy-1-methylpiperidinium iodide] | < 1
16 | CC(C)(O)c1ccc2c(c1)C(=CCCN1CCC(N3C(=O)OCC3Cc3ccc(Cl)cc3)CC1)c1cccnc1CO2 (stereo not drawn) [Example 498, 4-(4-Chloro-benzyl)-3-(1-{3-[7-(1-hydroxy-1-methyl-ethyl)-11H-10-oxa-1-aza-dibenzo[a,d]cyclohepten-5-ylidene]-propyl}-piperidin-4-yl)-oxazolidin-2-one] | < 10
17 | CC(=O)c1ccc2c(c1)C(=CCCN1CC[C@](O)(c3ccc(Cl)cc3)C(C)(C)C1)c1cccnc1CO2 [Example 504, S-1-(5-{3-[4-(4-Chloro-phenyl)-4-hydroxy-3,3-dimethyl-piperidin-1-yl]-propylidene}-5,11-dihydro-10-oxa-1-aza-dibenzo[a,d]cyclohepten-7-yl)-ethanone] | < 1

Row | Compound | IC50 [µM]
18 | 1-[3-(7-(1-Carboxyethyl)oxy-5,11-dihydro[1]benzoxepino[2,3-b]pyridin-5-ylidene)propyl]-4-(4-chlorophenyl)piperidin-4-ol [Example 178] | < 1
19 | 4-Benzyl-1-[3-(5,11-dihydro-7-methoxy[1]benzoxepino[2,3-b]pyridin-5-ylidene)propyl]piperidin-4-ol [Example 62] | < 10
20 | CCNC(=O)CN(Cc1ccc(Cl)cc1)C1CCN(CCC=C2c3cc(C(C)(C)O)ccc3OCc3ncccc32)C1 (stereo not drawn) [Example 553, 2-[(4-Chloro-benzyl)-(1-{3-[7-(1-hydroxy-1-methyl-ethyl)-11H-10-oxa-1-aza-dibenzo[a,d]cyclohepten-5-ylidene]-propyl}-pyrrolidin-3-yl)-amino]-N-ethyl-acetamide] | < 1
21 | 1-(4-Chlorophenyl)-4-[3-(5,11-dihydro-7-methoxy[1]benzoxepino[2,3-b]pyridin-5-ylidene)propyl]piperazine [Example 71] | < 1
22 | 1-[3-(7-(1-Carboxy-1-methylethyl)oxy-5,11-dihydro [1]benzoxepino[2,3-b]pyridin-5-ylidene)propyl]-4-(4-chlorophenyl)piperidin-4-ol [Example 139] | < 1
23 | 4-(4-Chlorophenyl)-1-[3-(5,11-dihydro[1]benzothiepino[2,3-b]pyridin-5-ylidene)propyl]piperidin-4-ol [Example 111] | < 1
24 | 4-(4-Chlorophenyl)-1-[3-(5,11-dihydro-7-ethoxy[1]benzoxepino[2,3-b]pyridin-5-ylidene)propyl]piperidine [Example 152] | < 1
25 | CCN(c1ccc(Cl)cc1)[C@@H]1CCN(CCC=C2c3cc(C(C)(C)O)ccc3OCc3ncccc32)C1 [Example 525, (R)-2-[5-(3-{3-[(4-Chloro-phenyl)-ethyl-amino]-pyrrolidin-1-yl}-propylidene)-5,11-dihydro-10-oxa-1-aza-dibenzo[a,d]cyclohepten-7-yl]-propan-2-ol] | < 20
26 | CC(C)(O)c1ccc2c(c1)C(=CCCN1CCC(C)(c3ccccc3Cl)CC1)c1cccnc1CO2 [Example 521, 2-(5-{3-[4-(2-Chloro-phenyl)-4-methyl-piperidin-1-yl]-propylidene}-5,11-dihydro-10-oxa-1-aza-dibenzo[a,d]cyclohepten-7-yl)-propan-2-ol] | < 1
27 | CCN(Cc1ccc(Cl)cc1)[C@@H]1CCN(CCC=C2c3cc(C(=O)O)ccc3OCc3ncccc32)C1 [Example 527, (R)-5-(3-{3-[(4-Chloro-benzyl)-ethyl-amino]-pyrrolidin-1-yl}-propylidene)-5,11-dihydro-10-oxa-1-aza-dibenzo[a,d]cycloheptene-7-carboxylic acid] | < 1
28 | 1-[3-(7-Chloro-5,11-dihydro[1]benzoxepino[2,3-b]pyridin-5-ylidene)propyl]-4-(4-chlorophenyl)piperidin-4-ol [Example 117] | < 1
29 | 4-(4-Chlorophenyl)-1-[3-(5,11-dihydro-7-(1-pyrrolidino)methyl [1]benzoxepino[2,3-b]pyridin-5-ylidene)propyl]piperidin-4-ol [Example 279] | < 1
30 | 1-[3-(7-(2-Carboxy)ethyl-5,11-dihydro[1]benzoxepino[2,3-b]pyridin-5-ylidene)propyl]-4-(4-chlorophenyl)-piperidin-4-ol [Example 123] | < 1
31 | CC(C)(O)c1ccc2c(c1)C(=CCCN1CCC(c3ccc(Cl)cc3)(C(C)(C)O)CC1)c1cccnc1CO2 [Example 463, 2-(5-{3-[4-(4-Chloro-phenyl)-4-(1-hydroxy-1-methyl-ethyl)-piperidin-1-yl]-propylidene}-5,11-dihydro-10-oxa-1-aza-dibenzo[a,d]cyclohepten-7-yl)-propan-2-ol] | < 10
32 | 1-[3-(7-Carbamoyl-5,11-dihydro[1]benzoxepino[2,3-b]pyridin-5-ylidene)propyl]-4-(4-chlorophenyl)piperidin-4-ol [Example 269] | < 1
33 | OCc1ccc2c(c1)C(=CCCN1CCC(O)(c3ccc(Cl)cc3)CC1)c1ccccc1CO2 [Example 26, 4-(4-Chlorophenyl)-1-[3-(6,11-dihydro-2-hydroxymethyldibenz[b,e]oxepin-11-ylidene)propyl]piperidin-4-ol] | < 1
